From ChEMBL document CHEMBL5236641, “Persistent challenges in the development of an mGlu7 PAM in vivo tool compound: The discovery of VU6046980” (Bioorg Med Chem Lett, 2023)
Values belong to the compound of their own block, whether it stands above or below them. Calls of active or inactive are those of the source. The calls are words filed in the database; no cut-off is given here.

Key:
[1] = target: Metabotropic glutamate receptor 7 (Rattus norvegicus, UniProt P35400); experiment: Positive allosteric modulation of rat mGluR7
Sequence of Metabotropic glutamate receptor 7 (P35400 whole entry): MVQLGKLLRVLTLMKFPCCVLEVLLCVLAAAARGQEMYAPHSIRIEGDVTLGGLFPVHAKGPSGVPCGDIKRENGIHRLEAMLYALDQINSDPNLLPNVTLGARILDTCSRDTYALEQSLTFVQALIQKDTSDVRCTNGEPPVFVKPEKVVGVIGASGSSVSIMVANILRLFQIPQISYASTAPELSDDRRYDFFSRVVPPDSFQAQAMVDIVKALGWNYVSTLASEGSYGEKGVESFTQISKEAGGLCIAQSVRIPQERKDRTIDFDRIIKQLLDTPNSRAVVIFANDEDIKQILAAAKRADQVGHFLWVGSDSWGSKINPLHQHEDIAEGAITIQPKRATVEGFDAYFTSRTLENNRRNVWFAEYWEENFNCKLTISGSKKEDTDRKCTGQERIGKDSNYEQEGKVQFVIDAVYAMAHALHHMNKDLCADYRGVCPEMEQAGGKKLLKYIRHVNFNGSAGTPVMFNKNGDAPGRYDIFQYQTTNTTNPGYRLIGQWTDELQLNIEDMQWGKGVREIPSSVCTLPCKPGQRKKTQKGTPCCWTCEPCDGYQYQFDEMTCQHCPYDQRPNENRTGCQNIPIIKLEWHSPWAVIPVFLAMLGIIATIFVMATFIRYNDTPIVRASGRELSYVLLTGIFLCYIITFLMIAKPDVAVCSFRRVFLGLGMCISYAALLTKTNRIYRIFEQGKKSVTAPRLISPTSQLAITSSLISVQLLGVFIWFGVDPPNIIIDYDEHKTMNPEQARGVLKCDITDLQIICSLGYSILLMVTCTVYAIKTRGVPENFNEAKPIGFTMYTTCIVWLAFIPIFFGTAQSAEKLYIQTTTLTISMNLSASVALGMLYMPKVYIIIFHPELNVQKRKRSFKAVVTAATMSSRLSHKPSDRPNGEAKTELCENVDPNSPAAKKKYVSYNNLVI

[2] = (§1) Positive allosteric modulation of rat mGluR8
Mus musculus [3] = experiment: Effect on locomotor response in wild type mouse assessed as decrease in distance travelled in an open field at 30 mg/kg, ip measured over 60 mins; type: functional, organism-based
[4] = target: Metabotropic glutamate receptor 4 (Homo sapiens, UniProt Q14833); experiment: Positive allosteric modulation of human mGluR4
[5] = target: T1, Metabotropic glutamate receptor 1 (Homo sapiens, UniProt Q13255); experiment: Positive allosteric modulation of human mGluR1
T1 sequence (Q13255 whole entry): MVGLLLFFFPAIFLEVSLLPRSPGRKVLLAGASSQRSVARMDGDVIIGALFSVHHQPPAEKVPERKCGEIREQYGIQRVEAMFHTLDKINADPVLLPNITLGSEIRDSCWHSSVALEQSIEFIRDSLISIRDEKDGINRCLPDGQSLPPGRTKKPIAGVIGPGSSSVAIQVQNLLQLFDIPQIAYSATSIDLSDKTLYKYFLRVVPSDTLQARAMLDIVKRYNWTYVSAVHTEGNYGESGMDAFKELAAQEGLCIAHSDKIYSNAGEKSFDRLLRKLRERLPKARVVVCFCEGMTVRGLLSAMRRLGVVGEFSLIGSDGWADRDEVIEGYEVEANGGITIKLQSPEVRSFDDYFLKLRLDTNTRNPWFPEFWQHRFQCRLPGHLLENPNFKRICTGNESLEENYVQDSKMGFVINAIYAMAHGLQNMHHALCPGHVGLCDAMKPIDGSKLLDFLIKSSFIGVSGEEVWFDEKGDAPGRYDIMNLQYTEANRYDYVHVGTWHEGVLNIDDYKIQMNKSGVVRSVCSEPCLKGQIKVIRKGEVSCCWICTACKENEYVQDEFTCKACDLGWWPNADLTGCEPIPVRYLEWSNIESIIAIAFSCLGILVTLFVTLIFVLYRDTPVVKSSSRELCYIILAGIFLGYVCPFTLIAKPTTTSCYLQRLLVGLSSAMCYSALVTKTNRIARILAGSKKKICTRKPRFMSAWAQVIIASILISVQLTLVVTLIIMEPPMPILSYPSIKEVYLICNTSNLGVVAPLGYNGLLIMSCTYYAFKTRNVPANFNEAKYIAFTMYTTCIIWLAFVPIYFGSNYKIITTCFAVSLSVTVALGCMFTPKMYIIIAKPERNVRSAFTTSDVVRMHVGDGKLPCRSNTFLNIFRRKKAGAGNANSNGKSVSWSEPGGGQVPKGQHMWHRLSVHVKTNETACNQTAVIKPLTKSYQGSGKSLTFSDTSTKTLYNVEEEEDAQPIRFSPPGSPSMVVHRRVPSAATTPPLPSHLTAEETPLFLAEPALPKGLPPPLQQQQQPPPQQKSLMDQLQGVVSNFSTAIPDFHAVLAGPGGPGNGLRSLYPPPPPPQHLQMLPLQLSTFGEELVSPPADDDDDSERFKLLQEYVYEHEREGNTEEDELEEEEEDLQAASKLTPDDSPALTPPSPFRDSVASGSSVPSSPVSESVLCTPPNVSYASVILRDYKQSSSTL

[6] = target: T2, Metabotropic glutamate receptor 5 (Homo sapiens, UniProt P41594); experiment: Positive allosteric modulation of human mGluR5
T2 sequence (P41594 whole entry): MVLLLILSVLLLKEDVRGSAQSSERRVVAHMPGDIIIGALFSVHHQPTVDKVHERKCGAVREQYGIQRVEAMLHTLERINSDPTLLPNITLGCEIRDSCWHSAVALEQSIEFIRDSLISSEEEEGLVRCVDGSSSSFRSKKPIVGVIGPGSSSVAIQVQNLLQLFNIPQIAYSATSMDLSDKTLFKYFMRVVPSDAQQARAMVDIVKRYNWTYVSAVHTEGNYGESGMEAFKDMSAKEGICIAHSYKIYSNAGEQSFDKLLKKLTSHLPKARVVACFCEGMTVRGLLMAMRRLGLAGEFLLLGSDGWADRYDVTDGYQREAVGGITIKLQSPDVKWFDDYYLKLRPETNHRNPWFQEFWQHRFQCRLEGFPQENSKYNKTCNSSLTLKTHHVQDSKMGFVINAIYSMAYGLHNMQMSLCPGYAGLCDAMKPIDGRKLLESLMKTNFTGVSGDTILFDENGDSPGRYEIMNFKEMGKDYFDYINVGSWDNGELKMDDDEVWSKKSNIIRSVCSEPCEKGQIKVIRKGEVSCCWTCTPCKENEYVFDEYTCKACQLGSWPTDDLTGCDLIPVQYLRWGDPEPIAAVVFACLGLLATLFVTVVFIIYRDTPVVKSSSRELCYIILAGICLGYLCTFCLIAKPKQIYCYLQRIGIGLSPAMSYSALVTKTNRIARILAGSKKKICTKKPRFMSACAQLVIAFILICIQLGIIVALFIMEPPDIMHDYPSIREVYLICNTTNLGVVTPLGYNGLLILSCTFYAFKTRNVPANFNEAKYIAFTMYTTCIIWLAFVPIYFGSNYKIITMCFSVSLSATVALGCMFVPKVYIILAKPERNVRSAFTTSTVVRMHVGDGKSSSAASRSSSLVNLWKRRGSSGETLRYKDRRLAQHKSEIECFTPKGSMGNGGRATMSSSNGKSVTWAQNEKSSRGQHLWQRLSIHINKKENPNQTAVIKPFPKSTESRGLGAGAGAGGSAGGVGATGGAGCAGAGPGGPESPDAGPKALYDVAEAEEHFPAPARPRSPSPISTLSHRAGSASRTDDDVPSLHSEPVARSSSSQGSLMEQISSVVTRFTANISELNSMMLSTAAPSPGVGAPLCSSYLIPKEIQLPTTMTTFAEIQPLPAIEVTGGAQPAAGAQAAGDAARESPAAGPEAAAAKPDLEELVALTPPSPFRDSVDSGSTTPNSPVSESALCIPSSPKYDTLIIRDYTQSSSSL

[7] = Unbound fraction in rat brain; type: ADME, tissue-based
Rattus norvegicus [8] = species on record: Rattus norvegicus; experiment: as §1
[9] = Unbound fraction in mouse plasma; type: ADME, cell-free
Mus musculus [10] = experiment: Anxiolytic activity in anxiety induced wild type mouse model assessed as reduction in marbles burying at 30 mg/kg; type: functional, organism-based
[11] = target: T3, Metabotropic glutamate receptor 8 (Homo sapiens, UniProt O00222); experiment: Positive allosteric modulation of human mGluR8
T3 sequence (O00222 whole entry): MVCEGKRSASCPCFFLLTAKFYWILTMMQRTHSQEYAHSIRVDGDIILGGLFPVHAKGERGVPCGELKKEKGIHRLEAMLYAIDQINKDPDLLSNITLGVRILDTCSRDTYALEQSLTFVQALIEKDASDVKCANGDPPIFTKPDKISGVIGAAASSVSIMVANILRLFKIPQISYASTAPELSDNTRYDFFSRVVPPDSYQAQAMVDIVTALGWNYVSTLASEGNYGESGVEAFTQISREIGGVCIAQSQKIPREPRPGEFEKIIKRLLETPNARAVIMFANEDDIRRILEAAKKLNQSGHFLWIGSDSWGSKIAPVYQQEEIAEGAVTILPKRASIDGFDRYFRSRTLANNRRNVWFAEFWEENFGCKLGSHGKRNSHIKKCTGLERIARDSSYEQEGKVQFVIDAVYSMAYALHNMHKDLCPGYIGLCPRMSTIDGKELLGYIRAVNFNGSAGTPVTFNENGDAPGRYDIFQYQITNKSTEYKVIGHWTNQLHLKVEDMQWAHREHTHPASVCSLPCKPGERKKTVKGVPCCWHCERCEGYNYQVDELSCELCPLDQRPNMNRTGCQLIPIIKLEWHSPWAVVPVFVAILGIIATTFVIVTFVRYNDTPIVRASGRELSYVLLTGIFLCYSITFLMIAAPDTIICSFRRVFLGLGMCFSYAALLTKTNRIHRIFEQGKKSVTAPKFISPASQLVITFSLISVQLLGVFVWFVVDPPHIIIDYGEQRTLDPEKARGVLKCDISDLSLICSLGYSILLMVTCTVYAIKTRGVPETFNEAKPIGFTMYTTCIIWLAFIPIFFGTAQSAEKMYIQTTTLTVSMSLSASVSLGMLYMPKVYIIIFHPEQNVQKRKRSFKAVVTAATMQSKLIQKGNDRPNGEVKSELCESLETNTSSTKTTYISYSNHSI

Mus musculus [12] = experiment: Effect on locomotor response in Grm7 knockout mouse assessed as decrease in distance travelled in an open field at 30 mg/kg, ip; type: functional, organism-based
[13] = target: T4, Metabotropic glutamate receptor 3 (Homo sapiens, UniProt Q14832); experiment: Positive allosteric modulation of human mGluR3
T4 sequence (Q14832 whole entry): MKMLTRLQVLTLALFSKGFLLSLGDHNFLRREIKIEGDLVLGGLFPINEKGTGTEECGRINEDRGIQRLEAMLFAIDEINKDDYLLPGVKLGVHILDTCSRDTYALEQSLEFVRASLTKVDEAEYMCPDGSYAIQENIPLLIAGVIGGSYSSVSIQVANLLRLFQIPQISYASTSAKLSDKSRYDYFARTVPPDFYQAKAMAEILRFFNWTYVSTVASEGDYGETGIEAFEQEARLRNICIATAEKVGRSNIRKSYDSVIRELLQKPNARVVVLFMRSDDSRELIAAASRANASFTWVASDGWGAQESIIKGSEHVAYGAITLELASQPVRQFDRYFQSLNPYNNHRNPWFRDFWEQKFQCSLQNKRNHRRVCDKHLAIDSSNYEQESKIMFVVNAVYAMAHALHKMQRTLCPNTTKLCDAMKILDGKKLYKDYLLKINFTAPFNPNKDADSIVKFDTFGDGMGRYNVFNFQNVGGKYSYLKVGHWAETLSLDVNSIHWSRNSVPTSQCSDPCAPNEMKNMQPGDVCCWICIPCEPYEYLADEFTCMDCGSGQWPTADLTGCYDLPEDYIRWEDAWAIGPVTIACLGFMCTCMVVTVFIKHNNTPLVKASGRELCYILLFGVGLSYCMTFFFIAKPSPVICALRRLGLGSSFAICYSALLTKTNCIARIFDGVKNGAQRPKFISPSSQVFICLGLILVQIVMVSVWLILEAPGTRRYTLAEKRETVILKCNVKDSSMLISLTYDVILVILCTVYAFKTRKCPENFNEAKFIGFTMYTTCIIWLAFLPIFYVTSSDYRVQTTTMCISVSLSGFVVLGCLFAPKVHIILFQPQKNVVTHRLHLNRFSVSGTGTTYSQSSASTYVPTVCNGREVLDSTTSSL

[14] = Unbound fraction in mouse brain; type: ADME, tissue-based
[15] = target: T5, Metabotropic glutamate receptor 2 (Homo sapiens, UniProt Q14416); experiment: Positive allosteric modulation of human mGluR2
[16] = Unbound fraction in rat plasma; type: ADME, cell-free
[17] = target: Sigma non-opioid intracellular receptor 1 (Homo sapiens) (UniProt Q99720); experiment: Inhibition of human sigma-1 receptor at 10 uM relative to control
[18] = target: T3, Metabotropic glutamate receptor 8; experiment: Positive allosteric modulation of mGluR8 (unknown origin)
Rattus norvegicus [19] = species on record: Rattus norvegicus; experiment: Positive allosteric modulation of rat mGluR8 in presence of L-AP4 Max relative to control; conditions: filed as positive allosteric modulator
[20] = target: T1, Metabotropic glutamate receptor 1; experiment: Positive allosteric modulation of mGluR1 (unknown origin)
[21] = target: T5, Metabotropic glutamate receptor 2; experiment: Positive allosteric modulation of mGluR2 (unknown origin)
[22] = target: T2, Metabotropic glutamate receptor 5; experiment: Positive allosteric modulation of mGluR5 (unknown origin)
[23] = Unbound brain-to-plasma concentration ratio in rat; type: ADME
[24] = target: T4, Metabotropic glutamate receptor 3; experiment: Positive allosteric modulation of mGluR3 (unknown origin)

SMILES: COc1cc(C(F)(F)F)cc2c(N3CCN4c5ccccc5OC[C@H]4C3)c(C#N)nnc12
EC50 [1]: 340 nM
EC50 [2]: > 30000 nM

SMILES: COC(=O)c1ccc(-n2c(C)cc(C(=O)CSc3ccc(NC(C)=O)cc3)c2C)cc1
EC50 [18]: 900 nM

SMILES: COc1ccccc1N1CCN(c2c(C#N)nnc3c(OC)cc(F)cc23)CC1
EC50 [1]: 820 nM
Activity (Rattus norvegicus [8]): inactive

SMILES: COc1cc(F)cc2c(N3CCN4c5ccccc5OC[C@@H]4C3)c(C#N)nnc12
EC50 [1]: 260 nM
EC50 [2]: > 30000 nM

SMILES: COc1cc(F)cc2c(N3CCN(c4ccccc4OC4CC4)CC3)c(C#N)nnc12
EC50 [1]: 310 nM
Activity (Rattus norvegicus [8]): inactive

SMILES: COc1cc(F)cc2c(N3CCN(c4ccccc4F)CC3)c(C#N)nnc12
EC50 [1]: 360 nM
K(p,uu,brain) [23]: 1.9

SMILES: COc1cc(F)cc2c(N3CCN(c4ccccc4OC(C)C)CC3)c(C#N)nnc12
EC50 [1]: 260 nM
Activity (Rattus norvegicus [8]): inactive

Further lines, with some results ahead:

EC50 [1]: 1200 nM
EC50 [2]: > 30000 nM
SMILES: COc1cc(F)cc2c(N3CCN4c5ccccc5NC(=O)C4C3)c(C#N)nnc12 (stereo not given)

EC50 [4]: > 30000 nM
EC50 [5]: > 30000 nM
EC50 [6]: > 30000 nM
fraction unbound [7]: 0.01
Activity (Rattus norvegicus [8]): inactive
Fu [9]: 0.024
EC50 [11]: > 30000 nM
EC50 [13]: > 30000 nM
fraction unbound [14]: 0.08
EC50 [15]: > 30000 nM
fraction unbound [16]: 0.3
inhibition [17]: 95%
SMILES: COc1cc(F)cc2c(N3CCN4c5c(F)cccc5OC[C@@H]4C3)c(C#N)nnc12
Activity (Mus musculus [3]): inactive
Activity (Mus musculus [10]): inactive
Activity (Mus musculus [12]): inactive

EC50 [1]: > 30000 nM
EC50 [2]: > 30000 nM
SMILES: COc1cc(C(F)(F)F)cc2c(N3CCN4c5ccccc5OC[C@@H]4C3)c(C#N)nnc12

EC50 [2]: 120 nM
Activity (Rattus norvegicus [19]): 48%
SMILES: COc1cc(F)cc2c(N3CCN4c5c(F)cccc5OCC4C3)c(C#N)nnc12 (stereo not given)

EC50 [1]: 43 nM
EC50 [2]: 190 nM
pEC50 [2]: 6.72
Activity (Rattus norvegicus [19]): 68%
SMILES: COc1cc(F)cc2c(N3CCN4c5ccccc5OC[C@H]4C3)c(C#N)nnc12

EC50 [1]: 120 nM
EC50 [2]: 620 nM
pEC50 [2]: 6.21
Activity (Rattus norvegicus [19]): 68%
SMILES: COc1cc(F)cc2c(N3CCN4c5ccccc5NCC4C3)c(C#N)nnc12 (stereo not given)

EC50 [20]: > 10000 nM
EC50 [21]: > 10000 nM
EC50 [18]: > 10000 nM
EC50 [22]: > 10000 nM
Kp uu ([23]; read-out: K(p,uu,brain)): 0.9
EC50 [24]: > 10000 nM
SMILES: [2H]C([2H])([2H])Oc1cc(F)cc2c(N3CCN(c4ccccc4F)CC3)c(C#N)cnc12
